Laboratory results: patent US8592421B2, “Cyclic bioisosters of purine system derivatives and a pharmaceutical composition based thereon” (priority 2003, dated 2013)

How the values were obtained:
[1] = Chronic toxicity of suppositories: biochemical indexes of blood serum; format: in vivo, rats; conditions: male rats, suppositories, 1 month; for Cholesterol in blood serum: control 3.02 ± 0.08; for Urea in blood serum: control 8.44 ± 0.60; for Glucose in blood serum: control 9.76 ± 0.15; for ALT in blood serum: control 11.33 ± 1.96; for AST in blood serum: control 19.13 ± 1.02; for Bilirubin in blood serum: control 35.93 ± 2.19; for Creatinine in blood serum: control 40.23 ± 2.84; for Alkalinous phosphatase in blood serum: control 40.74 ± 1.57; for Total protein in blood serum: control 94.89 ± 6.67;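 for all read-outs here: inbred rats dosed rectally with softened suppositories, controls given matching volumes of sterile medical liquid paraffin, serum sampled one month into a two-month dosing course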
Protocol: The experiments were conducted on inbred rats.
Two doses of preparations used in the experiments: 50 mg/kg and 500 mg/kg. Before the administration, the suppositories were softened by heating in a glass water bath at a temperature of 38-39° C., the soft mass was collected in tuberculin syringe in a volume of 1 ml, a needle with oliva was attached to the syringe, and the preparatory mass was introduced into the rectum of the animal for a depth of 1.5-2.0 cm. The animals of the control group were administered with sterile medical liquid paraffin in a volume corresponding to the volume of the investigated suppository. A complete course of administration of drugs to the animals was two months. A complex of laboratory diagnostic investigations was carried out one month after the beginning of the administration of the preparation to the animal—in a middle of the course (8 animals), two months after ending the course (8 animals) and three months after ending the recovery period of one month (8 animals). The mass of the body of the rats in the first month of administration of the preparation was determined weekly, and then once in two weeks. On the basis of the dynamics of an index of the mass of the animal body, the volume of preparation being administered was corrected taking into account the test dose.

[2] = test system: synthase of nitrogen oxide (NOC); experiment: Morphine abstinence model: activity of synthase of nitrogen oxide (NOC), radiometric [3H]L-citrulline method; format: in vivo, rats Wistar; conditions: 20.0 mg/kg intramuscularly; for Activity of NOC: Mesencephalon: control 2.18 ± 0.09; for Activity of NOC: Hypothalamus: control 5.37 ± 0.20
plasma hemostasis [3] = experiment: Prothrombin time after intravenous administration; format: in vivo, rabbit
Protocol: (§1) The static parameters of the blood and plasma coagulation (partial activated thromboplastin time, thrombin time, maximum coagulation activity (test for auto coagulation) were determined using the Behnk Electronic coagulometer (Germany). The operating principle of this instrument is based on the fact that the formed blood clot breaks the contacts of the pulse counter in the flask-pin circuit, said pin permanently oscillating in a vertical plane. The moment of formation of the clot is registered by stopping the stop watch hand.
(§2) The measurements were effected at a constant temperature of 37° C. maintained by a temperature control unit.
The method of its determination is based on estimation of the coagulation of citrate or oxalic blood plasma, when it is mixed with thromboplastin and a calcium chloride solution. Since under these conditions the time of formation of the clot depends on the content of II, VII, IX and X factors in the investigated plasma sample, now the test is called “thromboplastin time by Quick” or “activity thromboplastin complex”.
Citrate blood containing 1 part of citrate per 9 parts of native blood was centrifuged at 3000 rev/min for 10 minutes to obtain plasma deprived of thrombocytes.
Added into a test tube in a water bath were 0.1 ml of plasma and 0.1 ml of a thromboplastin solution.

plasma hemostasis [4] = experiment: Autocoagulation test (coagulating activity A) after intravenous administration; format: in vivo, rabbit
Protocol: The investigations were performed on 72 rabbits of the “Chinchilla” breed with a mass of 2.5±0.3 kg, who were administered which solutions of compounds 2, 15, 21, 37 in doses of 15, 30 and 60 mg/kg intravenously. The experiments included the thrombin-test (series No. 7300) and the coagulability-test (series No. 5000) purchased from the scientific-and-production association (SPA) “Renam”, thromboplastin (series No. 240600) and calcium chloride purchased from the SPA “MedioLab”
as §1, §2
Compounds 2, 15, 21, 37 according to the invention at a concentration of 15, 30 and 60 mg/kg were intravenously administered to the above experimental animals and their blood samples were taken off 15, 30, 60 and 120 minutes after the administration.
Added to 0.2 ml of plasma obtained by centrifuging citrate blood at 1500 rev/min within 10 minutes was a glycosylate-calcium mixture (2.0 ml 0.222% CaCl2+0.1 ml of investigated citrate blood) 4, 6, 8, 10 minutes after the preparation of this mixture and the time of coagulation in the sample was determined.
The obtained results in seconds were translated in factors of coagulating activity A in percent, which specify the state of both the coagulating and anticoagulating parts of the blood coagulating system. The results of the experiments are given in Table 7. • The effect of the compounds according to the invention on the values of coagulating activity A by the data of autocoagulation test with intravenous administration of the compounds to the rabbits

[5] = test system: adenosine-sensitive receptors of erythrocytes; experiment: Interaction with adenosine-sensitive receptors of erythrocytes (chemiluminescence of bound compound, adenosine competition); format: binding, mice of line BALB/c; conditions: incubation at 37° C. vs 4° C., 10^−7 to 10^−5 M
Protocol: The interaction of compounds 2, 15, 21, 37 according to the invention with adenosine-sensitive receptors of erythrocytes of female mice of line BALB/c of an age of 8-12 months was investigated.
The dependence of the chemiluminescence intensity of the compounds according to the invention in an alkaline solution of 0.1N NaOH was determined in the presence of hydrogen peroxide being an initiator of chemiluminescence. The chemiluminescence was studied using the <<LKB>> chemiluminometer.
The erythrocytes of peripheral blood of the mice at first were washed three times by a normal physiological solution with centrifuging and then diluted in the Henks solution without glucose by 10 volumes of distilled water immediately used in the experiment.
At the first stage of the experiments the washed erythrocytes were incubated at a temperature of 37° C. or at 4° C. with solutions of the compounds according to the invention at a concentration of 10^−7 to 10^−5 M for 5-30 minutes, then washed by a normal physiological solution with repeated centrifuging in the cold. The obtained suspension of erythrocytes with the bound compounds according to the invention was placed in 0.1N solution of NaOH with addition of hydrogen peroxide at a final concentration of 10^−7 M. The chemiluminescence intensity was measured. A suspension of erythrocytes without compounds according to the invention was used as a control medium.
At the second stage of the experiments the washed erythrocytes were incubated at a temperature of 37° C. with solutions of the compounds according to the invention at a concentration of 10^−11 to 10^−8 M during 5-30 minutes, then washed twice with a normal physiological solution by centrifuging in the cold, the obtained suspension was mixed with an adenosine solution at a concentration of 10^−6 to 10^−4 and incubated for 15 minutes, then washed twice with a normal physiological solution with centrifuging in the cold. The obtained suspension of erythrocytes with the compounds according to the invention was placed in 0.1N solution of NaOH with addition of hydrogen peroxide in the final concentration of 10^−7 M. The chemiluminescence intensity was measured.

Nc1cccc2c(=O)[nH][nH]c(=O)c12.[Na] [Compound 15, sodium salt of 5-amino-benzo[d]-3H-pyridazine-1,4-dione]
Cholesterol in blood serum ([1]; 50 mg/kg): 2.01 ± 0.50 mmol/L
Urea in blood serum ([1]; 50 mg/kg): 10.33 ± 0.51 Mkmol/l
Glucose in blood serum ([1]; 50 mg/kg): 10 ± 0.41 mM
ALT in blood serum ([1]; 50 mg/kg): 7.63 ± 1.95 unit/l
AST in blood serum ([1]; 50 mg/kg): 19.49 ± 2.90 unit/1
Bilirubin in blood serum ([1]; 50 mg/kg): 43.07 ± 3.57 mmol/L
Creatinine in blood serum ([1]; 50 mg/kg): 45.59 ± 2.68 mkmol/l
Alkalinous phosphatase in blood serum ([1]; 50 mg/kg): 40.74 ± 6.78 unit/l
Total protein in blood serum ([1]; 50 mg/kg): 90.22 ± 6.78 g/L
Cholesterol in blood serum ([1]; 500 mg/kg): 2.30 ± 0.57 mmol/L
Urea in blood serum ([1]; 500 mg/kg): 10.89 ± 0.73 Mkmol/l
Glucose in blood serum ([1]; 500 mg/kg): 10.7 ± 0.41 mM
ALT in blood serum ([1]; 500 mg/kg): 9.48 ± 1.85 unit/l
AST in blood serum ([1]; 500 mg/kg): 15.14 ± 1.58 unit/1
Bilirubin in blood serum ([1]; 500 mg/kg): 40.69 ± 15.75 mmol/L
Creatinine in blood serum ([1]; 500 mg/kg): 48.27 ± 12.29 mkmol/l
Alkalinous phosphatase in blood serum ([1]; 500 mg/kg): 41.60 ± 2.26 unit/l
Total protein in blood serum ([1]; 500 mg/kg): 71.56 ± 8.23 g/L
Activity of NOC: Mesencephalon ([2]; Control + Compound): 2.60 ± 0.29 pmol/min/mg of protein
Activity of NOC: Hypothalamus ([2]; Control + Compound): 5.45 ± 0.24 pmol/min/mg of protein
Activity of NOC: Mesencephalon ([2]; Control + Morphine + compound): 1.83 ± 0.23 pmol/min/mg of protein
Activity of NOC: Hypothalamus ([2]; Control + Morphine + compound): 5.26 ± 0.28 pmol/min/mg of protein
prothrombin time, T (plasma hemostasis [3]; 15.0 mg/kg intravenously, after 15 minutes, control 11.8 ± 0.1): 11.5 ± 0.2 s
prothrombin time, T (plasma hemostasis [3]; 15.0 mg/kg intravenously, after 30 minutes, control 11.8 ± 0.1): 11.7 ± 0.2 s
prothrombin time, T (plasma hemostasis [3]; 15.0 mg/kg intravenously, after 60 minutes, control 11.8 ± 0.1): 11.2 ± 0.2 s
prothrombin time, T (plasma hemostasis [3]; 15.0 mg/kg intravenously, after 120 minutes, control 11.8 ± 0.1): 11.5 ± 0.2 s
prothrombin time, T (plasma hemostasis [3]; 30.0 mg/kg intravenously, after 15 minutes, control 11.2 ± 0.1): 11.0 ± 0.2 s
prothrombin time, T (plasma hemostasis [3]; 30.0 mg/kg intravenously, after 30 minutes, control 11.2 ± 0.1): 11.2 ± 0.2 s
prothrombin time, T (plasma hemostasis [3]; 30.0 mg/kg intravenously, after 60 minutes, control 11.2 ± 0.1): 11.4 ± 0.2 s
prothrombin time, T (plasma hemostasis [3]; 30.0 mg/kg intravenously, after 120 minutes, control 11.2 ± 0.1): 11.3 ± 0.2 s
prothrombin time, T (plasma hemostasis [3]; 60.0 mg/kg intravenously, after 15 minutes, control 12.0 ± 0.1): 12.0 ± 0.1 s
prothrombin time, T (plasma hemostasis [3]; 60.0 mg/kg intravenously, after 30 minutes, control 12.0 ± 0.1): 12.0 ± 0.1 s
prothrombin time, T (plasma hemostasis [3]; 60.0 mg/kg intravenously, after 60 minutes, control 12.0 ± 0.1): 12.0 ± 0.2 s
prothrombin time, T (plasma hemostasis [3]; 60.0 mg/kg intravenously, after 120 minutes, control 12.0 ± 0.1): 12.0 ± 0.1 s
effect on the prothrombin time index (plasma hemostasis [3]; doses of 15.0, 30.0, 60.0 mg/kg): have no effect on the prothrombin time index
coagulating activity A (autocoagulation test) (plasma hemostasis [4]; 15.0 mg/kg intravenously, after 15 minutes, control 85.6): 82.3%
coagulating activity A (autocoagulation test) (plasma hemostasis [4]; 15.0 mg/kg intravenously, after 30 minutes, control 85.6): 103.0%
coagulating activity A (autocoagulation test) (plasma hemostasis [4]; 15.0 mg/kg intravenously, after 60 minutes, control 85.6): 89.0%
coagulating activity A (autocoagulation test) (plasma hemostasis [4]; 15.0 mg/kg intravenously, after 120 minutes, control 85.6): 101.2%
coagulating activity A (autocoagulation test) (plasma hemostasis [4]; 30.0 mg/kg intravenously, after 15 minutes, control 70.0): 100.3%
coagulating activity A (autocoagulation test) (plasma hemostasis [4]; 30.0 mg/kg intravenously, after 30 minutes, control 70.0): 68.4%
coagulating activity A (autocoagulation test) (plasma hemostasis [4]; 30.0 mg/kg intravenously, after 60 minutes, control 70.0): 106.6%
coagulating activity A (autocoagulation test) (plasma hemostasis [4]; 30.0 mg/kg intravenously, after 120 minutes, control 70.0): 70.6%
coagulating activity A (autocoagulation test) (plasma hemostasis [4]; 60.0 mg/kg intravenously, after 15 minutes, control 65.9): 74.4%
coagulating activity A (autocoagulation test) (plasma hemostasis [4]; 60.0 mg/kg intravenously, after 30 minutes, control 65.9): 63.2%
coagulating activity A (autocoagulation test) (plasma hemostasis [4]; 60.0 mg/kg intravenously, after 60 minutes, control 65.9): 64.4%
coagulating activity A (autocoagulation test) (plasma hemostasis [4]; 60.0 mg/kg intravenously, after 120 minutes, control 65.9): 66.5%
effect on the coagulation activity according to the autocoagulation test (plasma hemostasis [4]; doses 15.0, 30.0, 60.0 mg/kg): have no effect on the coagulation activity
dependence of the bond with erythrocytes on temperature [5]: does not depend on the temperature
